Data as given in PubChem BioAssay (NCI).
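Exposure lasted 48 hours, with cells grown in 96-well plates and compounds tested at five concentrations. GI50 marks 50% less growth. TGI denotes the concentration required for complete inhibition of growth.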

Columns and labels:
Assay in all cases: NCI tumour cell line growth inhibition, 48 h
RXF 393 renal = tested on: RXF 393 renal
NCI-H460 lung = tested on: NCI-H460 lung
MDA-MB-231 breast = tested on: MDA-MB-231 breast
MCF7 breast = tested on: MCF7 breast
IGROV1 ovarian = tested on: IGROV1 ovarian
SK-OV-3 ovarian = tested on: SK-OV-3 ovarian
TK-10 renal = tested on: TK-10 renal
BT-549 breast = tested on: BT-549 breast
MOLT-4 leukemia = tested on: MOLT-4 leukemia
OVCAR-8 ovarian = tested on: OVCAR-8 ovarian
NCI-H522 lung = tested on: NCI-H522 lung
CCRF-CEM leukemia = tested on: CCRF-CEM leukemia
HS 578T breast = tested on: HS 578T breast
SF-268 CNS = tested on: SF-268 CNS
OVCAR-5 ovarian = tested on: OVCAR-5 ovarian
HCC-2998 colon = tested on: HCC-2998 colon
M14 melanoma = tested on: M14 melanoma
NCI-H226 lung = tested on: NCI-H226 lung
HL-60(TB) leukemia = tested on: HL-60(TB) leukemia
SK-MEL-28 melanoma = tested on: SK-MEL-28 melanoma
SF-539 CNS = tested on: SF-539 CNS
SR leukemia = tested on: SR leukemia
KM12 colon = tested on: KM12 colon
UACC-62 melanoma = tested on: UACC-62 melanoma
RPMI-8226 leukemia = tested on: RPMI-8226 leukemia
COLO 205 colon = tested on: COLO 205 colon
SK-MEL-2 melanoma = tested on: SK-MEL-2 melanoma
UACC-257 melanoma = tested on: UACC-257 melanoma
HT29 colon = tested on: HT29 colon
MALME-3M melanoma = tested on: MALME-3M melanoma
EKVX NSCLC = tested on: EKVX NSCLC
SW-620 colon = tested on: SW-620 colon
SNB-19 CNS = tested on: SNB-19 CNS
SK-MEL-5 melanoma = tested on: SK-MEL-5 melanoma
LOX IMVI melanoma = tested on: LOX IMVI melanoma
T-47D breast = tested on: T-47D breast
HOP-62 NSCLC = tested on: HOP-62 NSCLC
A549 NSCLC = tested on: A549 NSCLC
NCI-H23 lung = tested on: NCI-H23 lung
MDA-MB-468 breast = tested on: MDA-MB-468 breast
786-0 renal = tested on: 786-0 renal
SNB-75 CNS = tested on: SNB-75 CNS
K-562 leukemia = tested on: K-562 leukemia
PC-3 prostate = tested on: PC-3 prostate
DU-145 prostate = tested on: DU-145 prostate
HCT-15 colon = tested on: HCT-15 colon
UO-31 renal = tested on: UO-31 renal
OVCAR-4 ovarian = tested on: OVCAR-4 ovarian
HCT-116 colon = tested on: HCT-116 colon
U251 CNS = tested on: U251 CNS
SF-295 CNS = tested on: SF-295 CNS
CAKI-1 renal = tested on: CAKI-1 renal
A498 renal = tested on: A498 renal
NCI/ADR-RES ovarian = tested on: NCI/ADR-RES ovarian
HOP-92 NSCLC = tested on: HOP-92 NSCLC
OVCAR-3 ovarian = tested on: OVCAR-3 ovarian
MDA-MB-435 = tested on: MDA-MB-435
ACHN renal = tested on: ACHN renal
SN12C renal = tested on: SN12C renal

Work on `C#CCN(C)CCCOc1ccc(N(C)C(=O)c2cc(C(C)C)c(O)cc2O)cc1Cl` yielded a GI50 (RXF 393 renal) of 685 nM, a TGI (RXF 393 renal) of 13800 nM and a GI50 (NCI-H460 lung) of 67.9 nM. The TGI (NCI-H460 lung) was 10900 nM, the GI50 (MDA-MB-231 breast) was 213 nM and the TGI (MDA-MB-231 breast) was 10900 nM. It also gave a GI50 (MCF7 breast) of 52.2 nM, a TGI (MCF7 breast) of 15400 nM and a GI50 (IGROV1 ovarian) of 172 nM. The TGI (IGROV1 ovarian) was 14700 nM, the GI50 (SK-OV-3 ovarian) was 53.4 nM and the TGI (SK-OV-3 ovarian) was 12900 nM. It also gave a GI50 (TK-10 renal) of 323 nM, a TGI (TK-10 renal) of 16800 nM and a GI50 (BT-549 breast) of 1090 nM. For the same molecule, the TGI (BT-549 breast) was 15400 nM, the GI50 (MOLT-4 leukemia) was 101 nM and the TGI (MOLT-4 leukemia) was 12500 nM. For the same molecule, the GI50 (OVCAR-8 ovarian) was 202 nM, the TGI (OVCAR-8 ovarian) was 21000 nM and the GI50 (NCI-H522 lung) was 165 nM. The TGI (NCI-H522 lung) was 14100 nM, the GI50 (CCRF-CEM leukemia) was 62.5 nM and the TGI (CCRF-CEM leukemia) was 13300 nM. For the same molecule, the GI50 (HS 578T breast) was 1330 nM, the TGI (HS 578T breast) was 27100 nM and the GI50 (SF-268 CNS) was 1320 nM. It also gave a TGI (SF-268 CNS) of 25900 nM, a GI50 (OVCAR-5 ovarian) of 477 nM and a TGI (OVCAR-5 ovarian) of 16000 nM. For the same molecule, the GI50 (HCC-2998 colon) was 224 nM, the TGI (HCC-2998 colon) was 2040 nM and the GI50 (M14 melanoma) was 406 nM. The TGI (M14 melanoma) was 13800 nM, the GI50 (NCI-H226 lung) was 557 nM and the TGI (NCI-H226 lung) was 19800 nM. For the same molecule, the GI50 (HL-60(TB) leukemia) was 53.3 nM, the TGI (HL-60(TB) leukemia) was 9100 nM and the GI50 (SK-MEL-28 melanoma) was 386 nM. The TGI (SK-MEL-28 melanoma) was 13300 nM, the GI50 (SF-539 CNS) was 325 nM and the TGI (SF-539 CNS) was 12900 nM. The GI50 (SR leukemia) was 40.9 nM, the TGI (SR leukemia) was 19400 nM and the GI50 (KM12 colon) was 105 nM. The TGI (KM12 colon) was 10900 nM, the GI50 (UACC-62 melanoma) was 168 nM and the TGI (UACC-62 melanoma) was 913 nM. For the same molecule, the GI50 (RPMI-8226 leukemia) was 266 nM, the TGI (RPMI-8226 leukemia) was 20500 nM and the GI50 (COLO 205 colon) was 2830 nM. The TGI (COLO 205 colon) was 12500 nM, the GI50 (SK-MEL-2 melanoma) was 1720 nM and the TGI (SK-MEL-2 melanoma) was 18600 nM. It also gave a GI50 (UACC-257 melanoma) of 521 nM, a TGI (UACC-257 melanoma) of 13800 nM and a GI50 (HT29 colon) of 3270 nM. It also gave a TGI (HT29 colon) of 13900 nM, a GI50 (MALME-3M melanoma) of 195 nM and a TGI (MALME-3M melanoma) of 2230 nM. For the same molecule, the GI50 (EKVX NSCLC) was 526 nM, the TGI (EKVX NSCLC) was 12700 nM and the GI50 (SW-620 colon) was 102 nM. For the same molecule, the TGI (SW-620 colon) was 13900 nM, the GI50 (SNB-19 CNS) was 435 nM and the TGI (SNB-19 CNS) was 15400 nM. For the same molecule, the GI50 (SK-MEL-5 melanoma) was 357 nM, the TGI (SK-MEL-5 melanoma) was 2020 nM and the GI50 (LOX IMVI melanoma) was 129 nM. It also gave a TGI (LOX IMVI melanoma) of 303 nM, a GI50 (T-47D breast) of 85.3 nM and a TGI (T-47D breast) of 13500 nM. The GI50 (HOP-62 NSCLC) was 249 nM, the TGI (HOP-62 NSCLC) was 19600 nM and the GI50 (A549 NSCLC) was 188 nM. For the same molecule, the TGI (A549 NSCLC) was 15400 nM, the GI50 (NCI-H23 lung) was 298 nM and the TGI (NCI-H23 lung) was 15000 nM. The GI50 (MDA-MB-468 breast) was 96.2 nM, the TGI (MDA-MB-468 breast) was 462 nM and the GI50 (786-0 renal) was 2600 nM. It also gave a TGI (786-0 renal) of 18700 nM, a GI50 (SNB-75 CNS) of 977 nM and a TGI (SNB-75 CNS) of 17800 nM. It also gave a GI50 (K-562 leukemia) of 78.8 nM, a TGI (K-562 leukemia) of 19400 nM and a GI50 (PC-3 prostate) of 161 nM. The TGI (PC-3 prostate) was 16000 nM, the GI50 (DU-145 prostate) was 59.2 nM and the TGI (DU-145 prostate) was 18200 nM. For the same molecule, the GI50 (HCT-15 colon) was 82.7 nM, the TGI (HCT-15 colon) was 12700 nM and the GI50 (UO-31 renal) was 148 nM. The TGI (UO-31 renal) was 14200 nM, the GI50 (OVCAR-4 ovarian) was 2010 nM and the TGI (OVCAR-4 ovarian) was 22200 nM. The GI50 (HCT-116 colon) was 88.9 nM, the TGI (HCT-116 colon) was 13300 nM and the GI50 (U251 CNS) was 283 nM. It also gave a TGI (U251 CNS) of 16000 nM, a GI50 (SF-295 CNS) of 348 nM and a TGI (SF-295 CNS) of 12700 nM. It also gave a GI50 (CAKI-1 renal) of 325 nM, a TGI (CAKI-1 renal) of 14900 nM and a GI50 (A498 renal) of 642 nM. For the same molecule, the TGI (A498 renal) was 16500 nM, the GI50 (NCI/ADR-RES ovarian) was 305 nM and the TGI (NCI/ADR-RES ovarian) was 8930 nM. It also gave a GI50 (HOP-92 NSCLC) of 328 nM, a TGI (HOP-92 NSCLC) of 3590 nM and a GI50 (OVCAR-3 ovarian) of 509 nM. The TGI (OVCAR-3 ovarian) was 16800 nM, the GI50 (MDA-MB-435) was 133 nM and the TGI (MDA-MB-435) was 12400 nM. For the same molecule, the GI50 (ACHN renal) was 96.3 nM, the TGI (ACHN renal) was 13500 nM and the GI50 (SN12C renal) was 92.5 nM. For the same molecule, the TGI (SN12C renal) was 14200 nM.
